Data taken from patent publication US20240002374A1, “5-MEMBERED HETEROARYLAMINOSULFONAMIDES FOR TREATING CONDITIONS MEDIATED BY DEFICIENT CFTR ACTIVITY” (Genzyme Corporation, priority 2019, published 2024).

Biological target: T1, CFTR (primary human bronchial epithelial cells from a ΔF508 homozygous CF donor, CF-HBE cells) (Homo sapiens, UniProt P13569, DEL508-508)
T1 construct: Primary human bronchial epithelial cells from a ΔF508 homozygous CF donor; host or cells: primary human bronchial epithelial cells (CF-HBE) from a ΔF508 homozygous CF donor
T1 sequence (P13569 with tags, fused parts or gaps DEL508-508): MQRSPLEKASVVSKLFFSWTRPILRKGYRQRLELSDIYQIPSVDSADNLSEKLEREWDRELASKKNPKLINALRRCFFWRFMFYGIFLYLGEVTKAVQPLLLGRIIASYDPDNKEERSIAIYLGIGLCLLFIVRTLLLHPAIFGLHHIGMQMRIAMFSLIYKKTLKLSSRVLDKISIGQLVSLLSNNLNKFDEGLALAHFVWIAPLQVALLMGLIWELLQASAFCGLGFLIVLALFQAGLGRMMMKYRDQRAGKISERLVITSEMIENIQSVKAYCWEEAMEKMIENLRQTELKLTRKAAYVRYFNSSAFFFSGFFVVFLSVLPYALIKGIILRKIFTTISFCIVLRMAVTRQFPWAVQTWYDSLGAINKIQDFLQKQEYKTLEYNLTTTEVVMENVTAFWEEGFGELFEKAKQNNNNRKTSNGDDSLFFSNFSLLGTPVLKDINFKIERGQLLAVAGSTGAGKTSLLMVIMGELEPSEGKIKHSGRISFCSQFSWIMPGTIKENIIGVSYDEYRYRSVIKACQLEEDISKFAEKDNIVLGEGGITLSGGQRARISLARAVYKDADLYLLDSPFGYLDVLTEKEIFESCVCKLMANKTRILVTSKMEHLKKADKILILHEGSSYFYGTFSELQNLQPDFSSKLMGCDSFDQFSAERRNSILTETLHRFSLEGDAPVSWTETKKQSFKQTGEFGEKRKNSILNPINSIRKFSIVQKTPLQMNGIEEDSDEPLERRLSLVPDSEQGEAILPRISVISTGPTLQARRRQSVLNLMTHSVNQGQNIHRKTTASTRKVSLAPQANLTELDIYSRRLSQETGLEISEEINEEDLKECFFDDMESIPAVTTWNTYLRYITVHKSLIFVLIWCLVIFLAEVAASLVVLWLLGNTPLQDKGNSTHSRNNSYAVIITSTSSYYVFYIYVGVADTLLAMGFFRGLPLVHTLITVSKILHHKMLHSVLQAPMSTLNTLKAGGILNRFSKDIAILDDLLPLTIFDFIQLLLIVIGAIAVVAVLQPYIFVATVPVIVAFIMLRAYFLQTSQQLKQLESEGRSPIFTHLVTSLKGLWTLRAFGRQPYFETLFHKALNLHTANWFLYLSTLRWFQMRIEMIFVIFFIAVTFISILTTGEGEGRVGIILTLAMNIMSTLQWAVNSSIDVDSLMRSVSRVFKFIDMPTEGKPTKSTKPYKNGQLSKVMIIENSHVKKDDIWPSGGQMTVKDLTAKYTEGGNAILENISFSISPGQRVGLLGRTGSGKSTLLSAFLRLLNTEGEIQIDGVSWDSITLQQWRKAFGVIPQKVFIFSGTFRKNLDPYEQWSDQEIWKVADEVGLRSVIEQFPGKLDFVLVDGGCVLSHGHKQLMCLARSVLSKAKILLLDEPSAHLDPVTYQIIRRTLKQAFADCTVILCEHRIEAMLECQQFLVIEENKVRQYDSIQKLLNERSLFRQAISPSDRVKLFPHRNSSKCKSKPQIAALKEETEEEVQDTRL
Experiment: TECC24 recording of CFTR-mediated transepithelial chloride transport (TECC24 AUC fold over DMSO @ 3 μM)
Assay type: cell-based
Conditions: 3 uM test agent; CF-HBE cells (ΔF508 homozygous) incubated 48 h; ratio of test agent AUC of forskolin-stimulated IEQ to vehicle (DMSO) AUC
Experimental: Example 510: TECC24 AUC Fold Over DMSO @ 3 μM
The effects of a test agent on CFTR-mediated transepithelial chloride transport was measured using TECC24 recording analysis. Test agents were solubilized in DMSO. Solubilized test agents were mixed with incubation medium containing DMEM/F12, Ultroser G (2%; Crescent Chemical, catalog #67042), Hyclone Fetal Clone H (2%; GE Healthcare, catalog #SH30066.02), bovine brain extract (0.25%; Lonza, catalog #CC-4098), insulin (2.5 μg/mL), IL-13 (10 ng/mL), hydrocortisone (20 nM), transferrin (2.5 μg/mL), triiodothyronine (500 nM), ethanolamine (250 nM), epinephrine (1.5 μM), phosphoethanolamine (250 nM), and retinoic acid (10 nM). Primary human bronchial epithelial cells from a ΔF508 homozygous CF donor (CF-HBE cells; from University of North Carolina Cystic Fibrosis Tissue Procurement Center), grown on Transwell HTS 24-well cell culture inserts (Costar, catalog #3378), were exposed to test agents or controls dissolved in incubation medium. The CF-HBE cells were cultured at 36.5° C. for 48 h before TECC24 recordings were performed in the presence or absence of test agent, a positive control or vehicle (DMSO).
Following incubation, the transwell cell culture inserts containing the test agent or control-treated CF-HBE cells were loaded onto a TECC24 apparatus (TECC v7 or MTECC v2; EP Design) to record the transepithelial voltage (VT) and resistance (TEER) using 4 AgCl electrodes per well configured in current-clamp mode. The apical and basolateral bath solutions both contained (in mM) 140 NaCl, 5 KCl, 2 CaCl2), 1 MgCl2, 10 Hepes, and 10 glucose (adjusted to pH 7.4 with NaOH) […]. To inhibit basal Na+ absorption, the ENaC inhibitor benzamil (10 μM) was added to the bath. Then, the adenylate cyclase activator, forskolin (10 μM), was added to the bath to activate CFTR. The forskolin-stimulated Cl− transport was halted by addition of bumetanide (20 μM), an inhibitor of the basolateral chloride co-transporter NKCC1, to the bath to confirm that the detected signal was chloride dependent. VT and TEER recordings were digitally acquired at routine intervals using TECC or MTECC software (EP Design). VT and TEER were transformed into equivalent transepithelial Cl− current (IEQ), and the Area Under the Curve (AUC) of the IEQ time course between forskolin and bumetanide addition is generated using Excel (Microsoft). Efficacy is expressed as the ratio of the test agent AUC divided by vehicle AUC. EC50s based on AUC are generated using the non-linear regression log(agonist) vs. response function in Prism software (GraphPad) with Hill Slope fixed=1.
If a test agent increased the AUC of the forskolin-stimulated IEQ relative to vehicle in CF-HBE cells, and this increase was inhibited by bumetanide, then the test agent was considered a CFTR corrector.

| Structure (SMILES) | TECC AUC vs. DMSO @ 3 uM |
| --- | --- |
| Cc1cccc(C(F)(F)F)c1-c1nc(NS(=O)(=O)c2ccnc(N)c2)sc1-c1cc(F)cc(OCCC(C)(C)C)c1 [Example 15, 2-Amino-N-(5-(3-(3,3-dimethylbutoxy)-5-fluorophenyl)-4-(2-methyl-6-(trifluoromethyl)phenyl)thiazol-2-yl)pyridine-4-sulfonamide] | A (“A” refers to AUC > 5) |
| Cc1cccc(C)c1-c1nc(NS(=O)(=O)c2ccccc2)sc1-c1cccc(OCCC(C)(C)C)c1 [Example 16, N-(5-(3-(3,3-Dimethylbutoxy)phenyl)-4-(2,6-dimethylphenyl)thiazol-2-yl)benzenesulfonamide] | A (“A” refers to AUC > 5) |
| Cc1cccc(C)c1-c1nc(NS(=O)(=O)c2ccccc2)sc1-c1cc(F)cc(OCCC(C)(C)C)c1 [Example 17, N-(5-(3-(3,3-Dimethylbutoxy)-5-fluorophenyl)-4-(2,6-dimethylphenyl)thiazol-2-yl)benzenesulfonamide] | B (“B” refers to AUC 2-5) |
| CC(C)c1ccccc1-c1nc(NS(=O)(=O)c2cccc(N)c2)sc1-c1cccc(OCCC(C)(C)C)c1 [Example 18, 3-Amino-N-(5-(3-(3,3-dimethylbutoxy)phenyl)-4-(2-isopropylphenyl)thiazol-2-yl)benzenesulfonamide] | A (“A” refers to AUC > 5) |
| CC(C)(C)CCOc1cccc(-c2sc(NS(=O)(=O)c3cccc(NC(=O)C4CC4)c3)nc2-c2ccccc2C(F)(F)F)c1 [Example 19, N-(3-(N-(5-(3-(3,3-Dimethylbutoxy)phenyl)-4-(2-(trifluoromethyl)phenyl)thiazol-2-yl)sulfamoyl)phenyl)cyclopropanecarboxamide] | A (“A” refers to AUC > 5) |
| CC(C)(C)CCOc1cccc(-c2sc(NS(=O)(=O)c3cccc(NC(=O)C4(F)CC4)c3)nc2-c2ccccc2C(F)(F)F)c1 [Example 20, N-(3-(N-(5-(3-(3,3-Dimethylbutoxy)phenyl)-4-(2-(trifluoromethyl)phenyl)thiazol-2-yl)sulfamoyl)phenyl)-1-fluorocyclopropane-1-carboxamide] | A (“A” refers to AUC > 5) |
| CNc1cccc(S(=O)(=O)Nc2nc(-c3ccccc3C(C)C)c(-c3cccc(OCCC(C)(C)C)c3)s2)c1 [Example 21, N-(5-(3-(3,3-Dimethylbutoxy)phenyl)-4-(2-isopropylphenyl)thiazol-2-yl)-3-(methylamino)benzenesulfonamide] | A (“A” refers to AUC > 5) |
| Cc1cccc(C)c1-c1nc(NS(=O)(=O)c2cccc(C(F)F)c2)sc1-c1cccc(OCCC(C)(C)C)c1 [Example 22, 3-(Difluoromethyl)-N-(5-(3-(3,3-dimethylbutoxy)phenyl)-4-(2,6-dimethylphenyl)thiazol-2-yl)benzenesulfonamide] | A (“A” refers to AUC > 5) |
| CC(C)c1ccccc1-c1nc(NS(=O)(=O)c2cccc(N)c2F)sc1-c1cccc(OCC(F)(F)C(C)(C)C)c1 [Example 23, 3-Amino-N-(5-(3-(2,2-difluoro-3,3-dimethylbutoxy)phenyl)-4-(2-isopropylphenyl)thiazol-2-yl)-2-fluorobenzenesulfonamide] | A (“A” refers to AUC > 5) |
| CC(C)c1ccccc1-c1nc(NS(=O)(=O)c2cccc(NC3CC(C)(O)C3)c2)sc1-c1ccc(F)c(OCC(F)(F)C(C)(C)C)c1 (stereo not shown) [Example 24, N-(5-(3-(2,2-Difluoro-3,3-dimethylbutoxy)-4-fluorophenyl)-4-(2-isopropylphenyl)thiazol-2-yl)-3-((3-hydroxy-3-methylcyclobutyl)amino)benzenesulfonamide] | A (“A” refers to AUC > 5) |
| Cc1cccc(C)c1-c1nc(NS(=O)(=O)c2cccc(N)c2F)sc1-c1cc(F)cc(OCCC(C)(C)C)c1 [Example 25, 3-Amino-N-(5-(3-(3,3-dimethylbutoxy)-5-fluorophenyl)-4-(2,6-dimethylphenyl)thiazol-2-yl)-2-fluorobenzenesulfonamide] | A (“A” refers to AUC > 5) |
| CC(C)c1ccccc1-c1nc(NS(=O)(=O)c2cc(N)ccc2F)sc1-c1ccc(F)c(OCC(F)(F)C(C)(C)C)c1 [Example 26, 5-Amino-N-(5-(3-(2,2-difluoro-3,3-dimethylbutoxy)-4-fluorophenyl)-4-(2-isopropylphenyl)thiazol-2-yl)-2-fluorobenzenesulfonamide] | A (“A” refers to AUC > 5) |
| CNc1cccc(S(=O)(=O)Nc2nc(-c3c(C)cccc3C)c(-c3cccc(OCCC(C)(C)C)c3)s2)c1 [Example 27, N-(5-(3-(3,3-Dimethylbutoxy)phenyl)-4-(2,6-dimethylphenyl)thiazol-2-yl)-3-(methylamino)benzenesulfonamide] | A (“A” refers to AUC > 5) |
| Cc1cccc(C)c1-c1nc(NS(=O)(=O)c2cccc(-n3cccn3)c2)sc1-c1cccc(OC2CCC(C)(C)C2)c1 (stereo not shown) [Example 28, N-(5-(3-((3,3-Dimethylcyclopentyl)oxy)phenyl)-4-(2,6-dimethylphenyl)thiazol-2-yl)-3-(1H-pyrazol-1-yl)benzenesulfonamide] | A (“A” refers to AUC > 5) |
| Cc1cccc(C)c1-c1nc(NS(=O)(=O)c2cccc(-c3ccn[nH]3)c2)sc1-c1cccc(OC2CCC(C)(C)C2)c1 (stereo not shown) [Example 29, N-(5-(3-((3,3-Dimethylcyclopentyl)oxy)phenyl)-4-(2,6-dimethylphenyl)thiazol-2-yl)-3-(1H-pyrazol-5-yl)benzenesulfonamide] | A (“A” refers to AUC > 5) |
| CC(C)c1ccccc1-c1nc(NS(=O)(=O)c2cccc(N)n2)sc1-c1cccc(OCCC(C)(C)C)c1 [Example 30, 6-Amino-N-(5-(3-(3,3-Dimethylbutoxy)phenyl)-4-(2-isopropylphenyl)thiazol-2-yl)pyridine-2-sulfonamide] | A (“A” refers to AUC > 5) |
| Cc1cccc(C)c1-c1nc(NS(=O)(=O)c2cccc(N)n2)sc1-c1cc(F)cc(OCCC(C)(C)C)c1 [Example 31, 6-Amino-N-(5-(3-(3,3-dimethylbutoxy)-5-fluorophenyl)-4-(2,6-dimethylphenyl)thiazol-2-yl)pyridine-2-sulfonamide] | A (“A” refers to AUC > 5) |
| Cc1cccc(C)c1-c1nc(NS(=O)(=O)c2ccnc(N)c2)sc1-c1cc(F)cc(OCCC(C)(C)C)c1 [Example 32, 2-Amino-N-(5-(3-(3,3-dimethylbutoxy)-5-fluorophenyl)-4-(2,6-dimethylphenyl)thiazol-2-yl)pyridine-4-sulfonamide] | A (“A” refers to AUC > 5) |
| CC(C)c1ccccc1-c1nc(NS(=O)(=O)c2ccnc(N)c2)sc1-c1cc(F)cc(OCCC(C)(C)C)c1 [Example 33, 2-Amino-N-(5-(3-(3,3-dimethylbutoxy)-5-fluorophenyl)-4-(2-isopropylphenyl)thiazol-2-yl)pyridine-4-sulfonamide] | A (“A” refers to AUC > 5) |
| Cc1cccc(OC(C)C)c1-c1nc(NS(=O)(=O)c2ccnc(N)c2)sc1-c1cc(F)cc(OCCC(C)(C)C)c1 [Example 34, 2-Amino-N-(5-(3-(3,3-dimethylbutoxy)-5-fluorophenyl)-4-(2-isopropoxy-6-methylphenyl)thiazol-2-yl)pyridine-4-sulfonamide] | A (“A” refers to AUC > 5) |
| Cc1cccc(C)c1-c1nc(NS(=O)(=O)c2cccnc2N)sc1-c1cc(F)cc(OCCC(C)(C)C)c1 [Example 35, 2-Amino-N-(5-(3-(3,3-dimethylbutoxy)-5-fluorophenyl)-4-(2,6-dimethylphenyl)thiazol-2-yl)pyridine-3-sulfonamide] | A (“A” refers to AUC > 5) |
| CC(C)c1ccccc1-c1nc(NS(=O)(=O)c2cccc(N[C@H](C(=O)O)C(C)(C)C)n2)sc1-c1cccc(OCCC(C)(C)C)c1 [Example 36, (S)-2-((6-(N-(5-(3-(3,3-Dimethylbutoxy)phenyl)-4-(2-isopropylphenyl)thiazol-2-yl)sulfamoyl)pyridin-2-yl)amino)-3,3-dimethylbutanoic Acid] | A (“A” refers to AUC > 5) |
